ChEMBL document CHEMBL4043133, “Discovery of a novel B-cell lymphoma 6 (BCL6)-corepressor interaction inhibitor by utilizing structure-based drug design” (Bioorg Med Chem, 2017)
pIC50, pKd: −log10 of the molar value. Converted amounts (≈) assume the structure as drawn.

Columns and labels:
BCoR-BCL6 [1] = molecular target: T1, BCoR-BCL6 (Homo sapiens, UniProt P41182)
Description: Inhibition of C-terminal biotin-labelled BCoR/wild-type BCL6 BTB domain (unknown origin) protein-protein interaction by ELISA

[2] = Permeability of the compound at pH 7.4 at 10 umol/L after 3 hrs by PAMPA; type: physicochemical; conditions: for permeability: pampa, pH 7.4, 3 h, 10 µM; for Papp at 3 h, 10 µM: PAMPA, pH 7.4, read-out: permeability
BCoR-BCL6 [3] = molecular target: T1, BCoR-BCL6; assay: Inhibition of recombinant human BCoR (112 to 753 residues) protein interaction with recombinant GAL4-fused BCL6 (5 to 129 residues) expressed in HEK293T cells measured after 20 hrs by luciferase reporter gene based mammalian two-hybrid assay; type: cell-based, HEK-293T
[4] = Aqueous solubility of the compound in aqueous buffer at pH 6.8 by UV-absorbance analysis; type: physicochemical
[5] = Mean residence time in mouse at 1 mg/kg, po administered as cassette dosing; type: ADME, organism-based; conditions: in vivo
[6] = Oral bioavailability in mouse at 1 mg/kg administered as cassette dosing; type: ADME, organism-based; conditions: in vivo
[7] = Volume of distribution at steady state in mouse at 1 mg/kg, po or 0.1 mg/kg, iv administered as cassette dosing; type: ADME, organism-based; conditions: in vivo, read-out: Vdss
[8] = Cmax in mouse at 1 mg/kg, po administered as cassette dosing; type: ADME, organism-based; parameters: dose 1 mg/kg, route oral; conditions: in vivo
[9] = Cytotoxicity against human HepG2 cells assessed as intracellular ATP levels at 30 uM after 24 hrs by CellTiter-Glo assay relative to control; type: cell-based; conditions: read-out: Activity
[10] = AUC in mouse at 1 mg/kg, po administered as cassette dosing; type: ADME, organism-based; conditions: in vivo
[11] = Tmax in mouse at 1 mg/kg, po administered as cassette dosing; type: ADME, organism-based; conditions: in vivo
[12] = Total clearance in mouse at 1 mg/kg, po or 0.1 mg/kg, iv administered as cassette dosing; type: ADME, organism-based; conditions: in vivo
[13] = molecular target: T2, B-cell lymphoma 6 protein (Homo sapiens, UniProt P41182); assay: Displacement of A488-SMRT from BCL6 BTB domain (unknown origin) by fluorescence polarization assay
[14] = molecular target: T2, B-cell lymphoma 6 protein
Description: Binding affinity to wild-type avi-tagged BCL6 BTB domain (unknown origin) by SPR analysis

SMILES: O=c1[nH]c2ccc(Nc3ccc([N+](=O)[O-])cc3C(F)(F)F)cc2[nH]1
- pIC50 (BCoR-BCL6 [1]): < 3.52

SMILES: N#Cc1ccc(Nc2ccc3[nH]c(=O)[nH]c3c2)c(Cl)c1 [TP-021n]
- pIC50 (BCoR-BCL6 [1]): 3.96

SMILES: O=c1[nH]c2ccc(Nc3cc(NCCCO)c([N+](=O)[O-])cc3Cl)cc2[nH]1
- permeability [2]: Impermeable
- pIC50 (BCoR-BCL6 [1]): 6.62
- pIC50 (BCoR-BCL6 [3]): < 4.00
- solubility [4]: 0.09 µg/mL (≈ 0.238 µM)

SMILES: O=c1[nH]c2ccc(Nc3cc(NC4CCOCC4)c([N+](=O)[O-])cc3Cl)cc2[nH]1
- Papp at 3 h, 10 µM [2]: 10.1 ×10⁻⁶ cm/s
- pIC50 (BCoR-BCL6 [1]): 6.89
- solubility [4]: 0.61 µg/mL (≈ 1.51 µM)

SMILES: COC(=O)c1ccc(Nc2ccc3[nH]c(=O)[nH]c3c2)c(Cl)c1
- pIC50 (BCoR-BCL6 [1]): 5.07

SMILES: O=C(O)CCNc1cc(Nc2ccc3[nH]c(=O)[nH]c3c2)c(Cl)cc1[N+](=O)[O-]
- permeability [2]: Impermeable
- pIC50 (BCoR-BCL6 [1]): 6.89
- solubility [4]: > 72 µg/mL

SMILES: Nc1cc(Nc2ccccc2)c2nonc2c1[N+](=O)[O-]
- pIC50 (BCoR-BCL6 [1]): 4.16

SMILES: O=C(O)c1ccc(Nc2ccc3[nH]c(=O)[nH]c3c2)c(Cl)c1
- pIC50 (BCoR-BCL6 [1]): 4.21

SMILES: CCOC(=O)CCNc1cc(Nc2ccc3[nH]c(=O)[nH]c3c2)c(Cl)cc1[N+](=O)[O-]
- Papp at 3 h, 10 µM [2]: 15.1 ×10⁻⁶ cm/s
- pIC50 (BCoR-BCL6 [1]): 6.37
- solubility [4]: 0.42 µg/mL (≈ 1 µM)

SMILES: N#Cc1cc([N+](=O)[O-])ccc1Nc1ccc2[nH]c(=O)[nH]c2c1
- pIC50 (BCoR-BCL6 [1]): 5.37

SMILES: O=c1[nH]c2ccc(Nc3cc(NCc4cccnc4)c([N+](=O)[O-])cc3Cl)cc2[nH]1
- Papp at 3 h, 10 µM [2]: 14.7 ×10⁻⁶ cm/s
- pIC50 (BCoR-BCL6 [1]): 6.82
- solubility [4]: < 0.23 µg/mL

SMILES: NC(=O)c1ccc(Nc2ccc3[nH]c(=O)[nH]c3c2)c(Cl)c1
- pIC50 (BCoR-BCL6 [1]): 4.37

SMILES: O=C1CCc2cc(Nc3cc(OC4CCOCC4)c([N+](=O)[O-])cc3Cl)ccc2N1
- Papp at 3 h, 10 µM [2]: 20.6 ×10⁻⁶ cm/s
- MRT [5]: 3.3 h
- bioavailability [6]: 79.9%
- pIC50 (BCoR-BCL6 [1]): 7.00
- Vd [7]: 1.51 L/kg
- Cmax [8]: 233 ng/mL
- viability at 24 h, 30 µM [9]: 83%
- AUC [10]: 1270 ng·h/mL
- pIC50 (BCoR-BCL6 [3]): 6.14
- solubility [4]: 12 µg/mL (≈ 28.7 µM)
- Tmax [11]: 2 h
- clearance [12]: 10.5 mL/min/kg

SMILES: O=C(O)CC(C(=O)O)N1C(=O)/C(=C2/C(=O)Nc3ccc(Br)cc32)SC1=S (centres undefined)
- pIC50 [13]: 3.67
- pIC50 (BCoR-BCL6 [1]): 3.70

SMILES: O=c1[nH]c2ccc(Nc3cc(OC4CCOCC4)c([N+](=O)[O-])cc3Cl)cc2[nH]1
- Papp at 3 h, 10 µM [2]: 4.5 ×10⁻⁶ cm/s
- pIC50 (BCoR-BCL6 [1]): 6.66
- viability at 24 h, 30 µM [9]: 100%
- solubility [4]: 18 µg/mL (≈ 44.5 µM)

SMILES: O=c1[nH]c2ccc(Nc3ccc([N+](=O)[O-])cc3Cl)cc2[nH]1
- pIC50 (BCoR-BCL6 [1]): 5.35
- pKd [14]: 5.30

SMILES: O=[N+]([O-])c1c(NCCCO)cc(Nc2ccc(F)cc2)c2nonc12
- pIC50 (BCoR-BCL6 [1]): 4.85
- pKd [14]: 4.62

SMILES: O=C1Cc2cc(Nc3cc(OC4CCOCC4)c([N+](=O)[O-])cc3Cl)ccc2N1
- Papp at 3 h, 10 µM [2]: 28.8 ×10⁻⁶ cm/s
- viability at 24 h, 30 µM [9]: 99%
- solubility [4]: 12 µg/mL (≈ 29.7 µM)

SMILES: O=c1[nH]c2ccc(Nc3ccc([N+](=O)[O-])cc3Br)cc2[nH]1
- pIC50 (BCoR-BCL6 [1]): 4.08
